Measurements reported in patent US11286268B1, “EIF4E-inhibiting compounds and methods” (EFFECTOR THERAPEUTICS, INC., priority 2019, dated 2022).
Like-named read-outs stand apart in the source and are kept apart here.

Target: recombinant eIF4E (Homo sapiens (Human), UniProt P06730)
Assay: Fluorescence polarization competition assay for eIF4E binding potency
Experimental: Compounds were screened for eIF4E binding potency using a fluorescence polarization competition assay. All binding reactions were performed in fluorescence polarization buffer (FPB) containing 20 mM Tris pH 7.5, 100 mM NaCl, 1 mM DTT, and 0.02% Tween-20. Final binding reactions contained 75 nM recombinant eIF4E (Beryllium, custom order), 20 nM EDA-m^7GDP-ATTO-550 (Jena Bioscience, NU-827-550) and varying concentrations of the inhibitory compound of interest. Final DMSO concentration in each reaction was 1%.
eIF4E protein was pre-incubated with EDA-m^7GDP-ATTO-550 in FPB at 2× concentrations for 5 minutes prior to the addition of compounds. Compounds (100×) were prepared using 3-fold serial dilutions in 100% DMSO, and subsequently diluted 1:50 in FPB to produce 2× stocks. 50 μl of 2× eIF4E/EDA-m^7GDP-ATTO-550 were transferred to the wells of a 96-well half-area black flat bottom polystyrene plate. 50 μl of 2× test compound were added, and binding reactions were allowed to equilibrate for 30 minutes at room temperature while protected from light. The fluorescent polarization signal was detected using a Victor 2 multi-label counter (Perkin Elmer) and the concentration necessary to achieve inhibition of eIF4E/EDA-m^7GDP-ATTO-550 binding by 50% (IC50) was calculated using data from an 8-point compound dilution series.
In Table 4A, IC50 values of less than 0.05 μM are labelled as “+++”, from 1 to 0.05 μM are labelled as “++”, and greater than 1 μM are labelled as “+”. ND=not determined.

[1] = fluorescence polarization competition, 75 nM recombinant eIF4E, 20 nM EDA-m7GDP-ATTO-550, IC50 class, read-out: elF4E FP
[2] = inhibition of eIF4E/EDA-m7GDP-ATTO-550 binding by 50%, Table 4B calculated values, read-out: IC50

recombinant eIF4E, sequence (P06730 whole entry): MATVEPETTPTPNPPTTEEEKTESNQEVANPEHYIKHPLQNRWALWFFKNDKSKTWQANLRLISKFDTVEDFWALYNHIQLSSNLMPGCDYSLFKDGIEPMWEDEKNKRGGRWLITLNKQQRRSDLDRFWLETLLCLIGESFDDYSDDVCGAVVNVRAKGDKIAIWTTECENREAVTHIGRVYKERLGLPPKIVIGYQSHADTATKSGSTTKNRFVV

| IC50 [1] | IC50 [2] | Structure (SMILES) |
| --- | --- | --- |
| < 50 nM | 20.4 nM | Cc1nc2cnc(C3CCC(F)(F)CC3)c(C#N)c2c(=O)n1CCOc1ccc(Cl)cc1-c1ccnc2c(C(=O)O)csc12 [compound 260] |
| < 50 nM | 42 nM | Cc1nc2cc(C(F)(F)F)c(CN(C)C)c(C#N)c2c(=O)n1CCOc1ccc(Cl)cc1-c1ccnc2c(C(=O)O)csc12 [compound 261] |
| < 50 nM |  | Cc1c(F)c2cc(C(F)(F)F)cc(C#N)c2c(=O)n1CCOc1ccc(Cl)cc1-c1ccnc2c(C(=O)O)csc12 [compound 262] |
| < 50 nM |  | Cc1c(C#N)c2cc(C(F)(F)F)cc(C#N)c2c(=O)n1CCOc1ccc(Cl)cc1-c1ccnc2c(C(=O)O)csc12 [compound 263] |
| < 50 nM | 24.6 nM | Cc1nc2cc(C(F)(F)Cl)cc(C#N)c2c(=O)n1CCOc1ccc(Cl)cc1-c1ccnc2c(C(=O)O)csc12 [compound 264] |
| 50 to 1000 nM | 77.1 nM | Cc1nc2cc(C(F)(F)F)cc(C#N)c2c(=O)n1CCOc1ccc(Cl)cc1-c1snc2c(C(=O)O)csc12 [compound 265] |
| < 50 nM | 26.6 nM | Cc1nc2cc(C(F)(F)F)cc(C#N)c2c(=O)n1CCOc1ccc(Cl)cc1-c1ccnc2c(C(=O)O)c(Cl)sc12 [compound 266] |
| 50 to 1000 nM | 74.1 nM | C#Cc1sc2c(-c3cc(Cl)ccc3OCCn3c(C)nc4cc(C(F)(F)F)cc(C#N)c4c3=O)ccnc2c1C(=O)O [compound 267] |
| < 50 nM | 34.1 nM | Cc1c(C(F)(F)F)c2cc(C(F)(F)F)cc(C#N)c2c(=O)n1CCOc1ccc(Cl)cc1-c1ccnc2c(C(=O)O)csc12 [compound 268] |
| < 50 nM | 15.6 nM | Cc1c(C(F)F)c2cc(C(F)(F)F)cc(C#N)c2c(=O)n1CCOc1ccc(Cl)cc1-c1ccnc2c(C(=O)O)csc12 [compound 269] |
| < 50 nM |  | Cc1c([N+](=O)O)c2cc(C(F)(F)F)cc(C#N)c2c(=O)n1CCOc1ccc(Cl)cc1-c1ccnc2c(C(=O)O)csc12 [compound 270] |
| < 50 nM | 13.2 nM | Cc1nc2cc(C(F)(F)F)cc([N+](=O)[O-])c2c(=O)n1CCOc1ccc(Cl)cc1-c1ccnc2c(C(=O)O)csc12 [compound 271] |
| < 50 nM | 30.2 nM | Cc1c(F)c2cc(C#N)cc(C#N)c2c(=O)n1CCOc1ccc(Cl)cc1-c1ccnc2c(C(=O)O)csc12 [compound 273] |
| < 50 nM | 18.8 nM | C=S(C)(=O)c1cc(C#N)c2c(=O)n(CCOc3ccc(Cl)cc3-c3ccnc4c(C(=O)O)csc34)c(C)c(F)c2c1 (centres unmarked) [compound 274] |
| < 50 nM | 22.8 nM | Cc1nc2cc(F)c(C#N)c(C#N)c2c(=O)n1CCOc1ccc(Cl)cc1-c1ccnc2c(C(=O)O)csc12 [compound 276] |
| < 50 nM | 30.7 nM | Cc1nc2cc(S(C)(=O)=O)c(Cl)c(C#N)c2c(=O)n1CCOc1ccc(Cl)cc1-c1ccnc2c(C(=O)O)csc12 [compound 277] |
| < 50 nM | 12.7 nM | Cc1nc2cc(S(C)(=O)=O)c(F)c(C#N)c2c(=O)n1CCOc1ccc(Cl)cc1-c1ccnc2c(C(=O)O)csc12 [compound 278] |
| < 50 nM | 17.8 nM | Cc1nc2cc(F)c(S(C)(=O)=O)c(C#N)c2c(=O)n1CCOc1ccc(Cl)cc1-c1ccnc2c(C(=O)O)csc12 [compound 279] |
| < 50 nM | 41.2 nM | Cc1nc2cc(S(=O)(=O)N(C)C)c(F)c(C#N)c2c(=O)n1CCOc1ccc(Cl)cc1-c1ccnc2c(C(=O)O)csc12 [compound 280] |
| < 50 nM | 37.5 nM | Cc1nc2cc(F)c(S(=O)(=O)N(C)C)c(C#N)c2c(=O)n1CCOc1ccc(Cl)cc1-c1ccnc2c(C(=O)O)csc12 [compound 281] |
| < 50 nM | 17.1 nM | Cc1nc2ccc(S(=O)(=O)N3CCC(F)(F)CC3)c(C#N)c2c(=O)n1CCOc1ccc(Cl)cc1-c1ccnc2c(C(=O)O)csc12 [compound 282] |
| < 50 nM | 40.6 nM | Cc1nc2ccc(S(=O)(=O)N(C)Cc3ccccc3)c(C#N)c2c(=O)n1CCOc1ccc(Cl)cc1-c1ccnc2c(C(=O)O)csc12 [compound 283] |
